Laboratory results from ChEMBL document CHEMBL3507680, “University of Dundee, Gates Library screen for HepG2 cell viability”.

Experiment: Human HepG2 cell viability assay in 384 well format
Assay type: toxicity, cell-based
Parameters: dose 125 nL, time 70.5 hour; concentration not given beside the values
Settings: HepG2 cells, read-out: Inhibition

Compound | cytotoxicity at 70.5 h [%]
CN(C)CCN1C(=O)CCCC12CCCN(C(=O)c1ccncc1)C2 (centres undefined) | -3.49
COCCN1C(=O)CC[C@]12CC[C@@H](NCc1ccc(OC)cc1)CC2 | 0.729
O=C(CC1CC1)N1CC[C@@H]2[C@H](CC1)N(Cc1cccnc1)CCS2(=O)=O | 5.01
CNC(=O)CC1CCN(Cc2nc(-c3ccc(SC)cc3)oc2C)CC1 | -6.83
O=C(Nc1cccnc1)[C@H]1CN(Cc2cccs2)C[C@H]2OCC[C@@H]12 | -10.8
O=C(c1ccc2[nH]ccc2c1)N1Cc2nc(CN3CCCCC3)oc2C1 | -3.84
CN1C(=O)C(C)(C)COc2cc(NS(=O)(=O)c3ccccc3)ccc21 | 8.64
CN(CCC#N)C(=O)CCOc1cccc(F)c1 | 13
CNC(=O)c1ccnc(N2CCCC(COc3cccc(C)c3)C2)c1 (centres undefined) | -20.4
COc1cc(C)nc(N2CCN(C(=O)c3cc(C)no3)CC2)n1 | 26.3
CN1CCCC(c2ccc(N3CCOCC3)cn2)C1 (centres undefined) | -3.9
CCc1nc(C2CCCN2CC(=O)N2CCCc3ccccc32)no1 (centres undefined) | 22
CCOC(=O)CCCNc1nc(C(C)(C)C)nc2c1cnn2C | -3.02
O=C(Nc1cccc(C(F)F)c1)N[C@@H]1C=C[C@H](CO)C1 | 2.83
Cc1cccc(CN2C[C@@H]3CC[C@H](C2)N(Cc2c(C)noc2C)C3=O)n1 | -3.2
Cc1ccc(-c2cc(N)c(=O)n(C(C)C(=O)NCC3CCCCC3)n2)s1 (centres undefined) | 18
Cc1noc(C)c1CN1CCc2ncc(CN(C)C)n2CC1 | -8.78
CN(C)CCNC(=O)c1sc2ccccc2c1C1CCC(CN)CC1 (centres undefined) | 8.65
CC(Cc1ccco1)NC(=O)CSc1nnc[nH]1 (centres undefined) | -9.49
Cc1nc(CN(C)c2nccc(C(F)(F)F)n2)cs1 | -7.33
Cc1csc(C(C)(C)NCc2ncc(-c3ccc(F)cc3)o2)n1 | -4.53
COc1ccc2[nH]c(C(=O)NCC3(N)CCCC3)cc2c1 | -7.33

Compound | cytotoxicity at 70.5 h [%]
Cc1nn(C)cc1S(=O)(=O)NCC(c1ccccc1)N1CCCCCC1 (centres undefined) | 17.9
COc1ccccc1N1CCC(CNS(=O)(=O)c2c(C)nn(C)c2C)C1 (centres undefined) | 2.25
Cc1cnc2n1CCN(C)C21CCN(CC2CC2)CC1 | -0.923
Cc1ccc(CN(C)c2nccc(-c3cn(C)nc3C)n2)o1 | -9.08
Cc1c(F)cccc1S(=O)(=O)Nc1noc(C(C)C)n1 | -7.44
O=C(C1CCCN(C2CCOCC2)C1)N1Cc2ccccc2C1 (centres undefined) | 13
CNc1cc(CNC(=O)c2ccccc2OC)nc(-c2ccncc2)n1 | 12.5
COc1ccc(C)cc1CN(C)Cc1nc2c(cnn2C)c(=O)[nH]1 | -7.21
CO[C@H]1CN(C(=O)c2cccc(C)n2)CC[C@@]12CCCO2 | -6.22
O=C(CS(=O)(=O)C1CCCC1)NC1CCCc2cc(OC(F)F)ccc21 (centres undefined) | -9.47
c1csc(COC[C@H]2CCC[C@]23CN(Cc2ccoc2)CCO3)n1 | -9.63
CN1CCN(c2cc(CCNC(=O)C3CCC3)nc(C3CC3)n2)CC1 | -6.65
CN(C)CCOc1ccc(N(C)S(=O)(=O)c2cnn(C)c2)cc1 | -1.43
Cc1nccn1CCCC(=O)N1CCN(c2cccnc2)CC1 | 4.06
CCn1c(N)nc2cc(C(=O)N3CCN(c4ccncc4)CC3)cnc21 | -2.2
O=C(NCCCN1CCCC1)c1n[nH]c(=O)c2ccccc12 | -9.07
Cn1cc(C(=O)N2CC[C@@H]3[C@@H]2CCN3Cc2cccnc2)cn1 | -14.5
CCOc1ccc(CN2C(=O)CC(C)(C)C2=O)nc1 | 2.3
COCc1cc(NCc2ccccc2-n2cncn2)ncn1 | -10.8
Cn1cccc1C(=O)N1CCC(c2nccn2Cc2ccncc2)CC1 | 25.5
COc1c(CNCc2ccccc2Cn2cccn2)c(C)nn1C | -5.48
COc1ccccc1C(NC(=O)C1CCC1)c1noc(C)n1 (centres undefined) | -5.9
